Values quoted from earlier work, collected in US8163752B2, “Tricyclic anilide heterocyclic CGRP receptor antagonists” (Merck, Sharp & Dohme Corp., priority 2007, dated 2012).
No end group written: not given here.

Tests used:
[1] = tested on: acute attacks of migraine; conditions: clinical trials (Olesen et al. 2004)
[2] = tested on: headache induced by CGRP infusion; conditions: control group (Petersen et al. 2005)
facial blood flow [3] = conditions: marmoset, electrical stimulation of the trigeminal ganglion (Doods et al. 2000)
middle meningeal artery = conditions: rats, electrical stimulation of the dura mater, prior administration (Williamson et al. 1997)
facial blood flow [4] = conditions: rat, trigeminal ganglion stimulation (Escott et al. 1995)

| Molecule | efficacy in treating acute attacks of migraine [1] | prevention of headache induced by CGRP infusion [2] | effect on increase in facial blood flow (facial blood flow [3]) | effect on increase of middle meningeal artery diameter (middle meningeal artery) | effect on increased facial blood flow (facial blood flow [4]) |
| --- | --- | --- | --- | --- | --- |
| NCCCC[C@H](NC(=O)[C@@H](Cc1cc(Br)c(O)c(Br)c1)NC(=O)N1CCC(N2Cc3ccccc3NC2=O)CC1)C(=O)N1CCN(c2ccncc2)CC1 [BIBN4096BS] | effective in treating acute attacks of migraine | able to prevent headache induced by CGRP infusion | could be blocked |  |  |
| CGRP(8-37): a peptide CGRP antagonist; fragment of CGRP that lacks seven N-terminal amino acid residues (VTHRLAGLLSRSGGVVKNNFVPTNVGSKAF; ends and bridges not checked; UniProt P06881 90-119, looked up, fragment) |  |  |  | blocked | inhibited |
